Like-named read-outs stand apart in the source and are kept apart here.
How the values were obtained:
[1] = molecular target: AM2 S31N (serine→asparagine mutation at residue 31 in the M2 protein) (Influenza A virus, UniProt P0DOF5, S31N); type: cell-based, influenza virus A/Udorn/72
[2] = molecular target: AM2 V27A (valine→alanine mutation at residue 27 in the M2 protein) (Influenza A virus, UniProt P0DOF5, V27A); type: cell-based, influenza virus A/Udorn/72

Row | SMILES | S31N OOcyte Inhibition at 100 uM (%) [1] | V27A OOcyte Inhibition at 100 uM (%) [2] | S31N OOcyte Inhibition at 100 uM (%) ([1]; pH 5.5) | V27A OOcyte Inhibition at 100 uM (%) ([2]; pH 5.5)
1 | CCc1ccc(CNC23CC4CC(CC(C4)C2)C3)s1 [Example 98a, N-((5-ethylthiophen-2-yl)methyl)adamantan-1-amine] | A (key: (A)=31-95%; (B)=0-30%) | B (key: (A)=31-95%; (B)=0-30%) | – | –
2 | Brc1ccc(CNC23CC4CC(CC(C4)C2)C3)s1 [Example 81a, N-((5-Bromothiophen-2-yl)methyl)adamantan-1-amine] | A (key: (A)=31-95%; (B)=0-30%) | B (key: (A)=31-95%; (B)=0-30%) | – | –
3 | OCc1cc(Br)ccc1CNC12CC3CC(CC(C3)C1)C2 [Example 52a, [2-(Adamantan-1-ylaminomethyl)-5-bromo-phenyl]methanol] | B (key: (A)=31-95%; (B)=0-30%) | B (key: (A)=31-95%; (B)=0-30%) | – | –
4 | Oc1c(CNC23CC4CC(CC(C4)C2)C3)ccc2ccccc12 [Example 97, 2-(Adamantan-1-ylaminomethyl)-naphthalen-1-ol] | – | – | A (key: (A)=31-95%; (B)=0-30%) | B (key: (A)=31-95%; (B)=0-30%)
5 | CSc1ccc(-c2ccc(CNC34CC5CC(CC(C5)C3)C4)s2)cc1 [Example 112a, N-((5-(4-(methylthio)phenyl)thiophen-2-yl)methyl)adamantan-1-amine] | A (key: (A)=31-95%; (B)=0-30%) | B (key: (A)=31-95%; (B)=0-30%) | – | –
6 | Clc1ccc(/C=C/CNC23CC4CC(CC(C4)C2)C3)cc1 [Example 200a, N-((E)-3-(4-chlorophenyl)allyl)adamantan-1-amine] | A (key: (A)=31-95%; (B)=0-30%) | B (key: (A)=31-95%; (B)=0-30%) | – | –
7 | c1coc(-c2ccc(CNC34CC5CC(CC(C5)C3)C4)cn2)c1 [Example 60a, N-((6-(furan-2-yl)pyridin-3-yl)methyl)adamantan-1-amine] | A (key: (A)=31-95%; (B)=0-30%) | B (key: (A)=31-95%; (B)=0-30%) | – | –
8 | Oc1cc(F)c(CNC23CC4CC(CC(C4)C2)C3)c(F)c1 [Example 69, 4-(Adamantan-1-ylaminomethyl)-3,5-difluoro-phenol] | – | – | B (key: (A)=31-95%; (B)=0-30%) | A (key: (A)=31-95%; (B)=0-30%)
9 | Brc1cccc(CNC23CC4CC(CC(C4)C2)C3)c1 [Example 3a, N-(3-Bromobenzyl)adamantan-1-amine] | B (key: (A)=31-95%; (B)=0-30%) | B (key: (A)=31-95%; (B)=0-30%) | – | –
10 | c1cc2cc(CNC34CC5CC(CC(C5)C3)C4)sc2s1 [Example 79, Adamantan-1-yl-thieno[2,3-b]thiophen-2-ylmethyl-amine] | – | – | A (key: (A)=31-95%; (B)=0-30%) | B (key: (A)=31-95%; (B)=0-30%)
11 | COc1ccc2cc(CNC34CC5CC(CC(C5)C3)C4)[nH]c2c1 [Example 186a, N-((6-methoxy-1H-indol-2-yl)methyl)adamantan-1-amine] | A (key: (A)=31-95%; (B)=0-30%) | B (key: (A)=31-95%; (B)=0-30%) | – | –
12 | Cc1ccc(CNC23CC4CC(CC(C4)C2)C3)s1 [Example 78a, N-((5-methylthiophen-2-yl)methyl)adamantan-1-amine] | A (key: (A)=31-95%; (B)=0-30%) | A (key: (A)=31-95%; (B)=0-30%) | – | –
13 | COc1ccccc1COc1ccc(CNC23CC4CC(CC(C4)C2)C3)cc1 [Example 15a, Adamantan-1-yl-[4-(2-methoxy-benzyloxy)-benzyl]-amine] | A (key: (A)=31-95%; (B)=0-30%) | B (key: (A)=31-95%; (B)=0-30%) | – | –
14 | Oc1cc(OCc2ccccc2)ccc1CNC12CC3CC(CC(C3)C1)C2 [Example 57, 2-(Adamantan-1-ylaminomethyl)-5-benzyloxy-phenol] | – | – | A (key: (A)=31-95%; (B)=0-30%) | B (key: (A)=31-95%; (B)=0-30%)
15 | c1nc(-c2ccc(CNC34CC5CC(CC(C5)C3)C4)cc2)no1 [Example 40, Adamantan-1-yl-(4-[1,2,4]oxadiazol-3-yl-benzyl)-amine] | – | – | A (key: (A)=31-95%; (B)=0-30%) | B (key: (A)=31-95%; (B)=0-30%)
16 | O=[N+]([O-])c1ccc(CNC23CC4CC(CC(C4)C2)C3)s1 [Example 100a, N-((5-nitrothiophen-2-yl)methyl)adamantan-1-amine] | B (key: (A)=31-95%; (B)=0-30%) | A (key: (A)=31-95%; (B)=0-30%) | – | –

Row | SMILES | S31N OOcyte Inhibition at 100 uM (%) [1] | V27A OOcyte Inhibition at 100 uM (%) [2] | S31N OOcyte Inhibition at 100 uM (%) ([1]; pH 5.5) | V27A OOcyte Inhibition at 100 uM (%) ([2]; pH 5.5)
17 | Fc1ccc(C(F)(F)F)cc1CNC12CC3CC(CC(C3)C1)C2 [Example 62, Adamantan-1-yl-(2-fluoro-5-trifluoromethyl-benzyl)-amine] | – | – | B (key: (A)=31-95%; (B)=0-30%) | B (key: (A)=31-95%; (B)=0-30%)
18 | FC(F)(F)Oc1ccc(CNC23CC4CC(CC(C4)C2)C3)cc1 [Example 4a, Adamantan-1-yl-(4-trifluoromethoxy-benzyl)-amine] | B (key: (A)=31-95%; (B)=0-30%) | B (key: (A)=31-95%; (B)=0-30%) | – | –
19 | c1cc(CNC23CC4CC(CC(C4)C2)C3)cs1 [Example 68a, Adamantan-1-yl-thiophen-3-ylmethyl-amine] | B (key: (A)=31-95%; (B)=0-30%) | A (key: (A)=31-95%; (B)=0-30%) | – | –
20 | c1c(CNC2C3CC4CC(C3)CC2C4)nc2n1CCS2 (stereo not shown) [Example 105, Adamantan-2-yl-(2,3-dihydro-imidazo[2,1-b]thiazol-6-ylmethyl)-amine] | – | – | B (key: (A)=31-95%; (B)=0-30%) | B (key: (A)=31-95%; (B)=0-30%)
21 | c1ccc(-c2cc(CNC34CC5CC(CC(C5)C3)C4)no2)cc1 [Example 116a, N-((5-phenylisoxazol-3-yl)methyl)adamantan-1-amine] | A (key: (A)=31-95%; (B)=0-30%) | B (key: (A)=31-95%; (B)=0-30%) | – | –
22 | C[Si](C)(C)c1ccc(CNC23CC4CC(CC(C4)C2)C3)cc1 [Example 6a, Adamantan-1-yl-(4-trimethylsilanyl-benzyl)-amine] | A (key: (A)=31-95%; (B)=0-30%) | B (key: (A)=31-95%; (B)=0-30%) | – | –
23 | c1coc(-c2ncc(CNC34CC5CC(CC(C5)C3)C4)cn2)c1 [Example 62a, N-((2-(furan-2-yl)pyrimidin-5-yl)methyl)adamantan-1-amine] | A (key: (A)=31-95%; (B)=0-30%) | B (key: (A)=31-95%; (B)=0-30%) | – | –
24 | C(=C\c1ccccc1)/CNC12CC3CC(CC(C3)C1)C2 [Example 199a, N-cinnamyladamantan-1-amine] | A (key: (A)=31-95%; (B)=0-30%) | B (key: (A)=31-95%; (B)=0-30%) | – | –
25 | COc1ccc(-c2ccc(CNC34CC5CC(CC(C5)C3)C4)s2)cc1 [Example 113a, N-((5-(4-methoxyphenyl)thiophen-2-yl)methyl)adamantan-1-amine] | A (key: (A)=31-95%; (B)=0-30%) | B (key: (A)=31-95%; (B)=0-30%) | – | –
26 | c1cc(-c2csc(CNC34CC5CC(CC(C5)C3)C4)c2)cs1 [Example 152a, N-([3,3′-bithiophen]-5-ylmethyl)adamantan-1-amine] | B (key: (A)=31-95%; (B)=0-30%) | A (key: (A)=31-95%; (B)=0-30%) | – | –
27 | Cc1nc(CNC23CC4CC(CC(C4)C2)C3)c[nH]1 [Example 99a, N-((2-methyl-1H-imidazol-4-yl)methyl)adamantan-1-amine] | B (key: (A)=31-95%; (B)=0-30%) | B (key: (A)=31-95%; (B)=0-30%) | – | –
28 | O=C1CCCN1c1ccc(CNC23CC4CC(CC(C4)C2)C3)cc1 [Example 45a, 1-(4-((adamantan-1-ylamino)methyl)phenyl)pyrrolidin-2-one] | A (key: (A)=31-95%; (B)=0-30%) | B (key: (A)=31-95%; (B)=0-30%) | – | –
29 | Oc1c(F)cc(CNC23CC4CC(CC(C4)C2)C3)cc1Cl [Example 68, 4-(Adamantan-1-ylaminomethyl)-2-chloro-6-fluoro-phenol] | – | – | B (key: (A)=31-95%; (B)=0-30%) | B (key: (A)=31-95%; (B)=0-30%)
30 | O=c1[nH]cc(CNC23CC4CC(CC(C4)C2)C3)c(=O)[nH]1 [Example 169a, 5-((adamantan-1-ylamino)methyl)pyrimidine-2,4(1H,3H)-dione] | B (key: (A)=31-95%; (B)=0-30%) | B (key: (A)=31-95%; (B)=0-30%) | – | –
31 | CC1(C)CCC(NCc2ccc(O)cc2O)CC1 [Example 108, 4-[(4,4-Dimethyl-cyclohexylamino)-methyl]-benzene-1,3-diol] | – | – | B (key: (A)=31-95%; (B)=0-30%) | B (key: (A)=31-95%; (B)=0-30%)
32 | c1csc(CNC23CC4CC(CC(C4)C2)C3)c1 [Example 70a, Adamantan-1-yl-thiophen-2-ylmethyl-amine] | B (key: (A)=31-95%; (B)=0-30%) | B (key: (A)=31-95%; (B)=0-30%) | – | –

From US9884832B2 (priority 2011, dated 2018)
